# Laboratory results published in patent US7662417B2, “Preservatives and protective systems” (Laboratorios Miret, S.A., priority 2002, dated 2010).
# Tests used:
# [1] = metabolism in rats; format: in vivo
# [2] = tested on: Staphylococcus aureus ATCC 6538; experiment: standard CMI evaluation; format: cell-based; conditions: tested at 683-8 mg/L, both products contain 21% LAE
# Procedure: (§1) A precipitate of xanthan/LAE is formed when 150 mL of a solution containing 1.3% of xanthan gum and 300 mL of a solution containing 0.3% of LAE are mixed. Then, 2.5 g of white solid are isolated by filtration.
# [3] = tested on: Salmonella typhimurium ATCC 16028; experiment: standard CMI evaluation; format: cell-based; conditions: tested at 683-8 mg/L, both products contain 21% LAE
# Procedure: as §1
# [4] = tested on: Pseudomonas aeruginosa ATCC 9023; experiment: standard CMI evaluation; format: cell-based; conditions: tested at 683-8 mg/L, both products contain 21% LAE
# Procedure: as §1
# [5] = tested on: Bacillus cereus ATCC 9634; experiment: standard CMI evaluation; format: cell-based; conditions: tested at 683-8 mg/L, both products contain 21% LAE
# Procedure: as §1
# [6] = tested on: Enterobacter aerogenes CECT 684; experiment: standard CMI evaluation; format: cell-based; conditions: tested at 683-8 mg/L, both products contain 21% LAE
# Procedure: as §1
# [7] = tested on: Citrobacter intermedium CECT 401; experiment: standard CMI evaluation; format: cell-based; conditions: tested at 683-8 mg/L, both products contain 21% LAE
# Procedure: as §1
# [8] = tested on: Rhodotorula ruba CECT 1158; experiment: standard CMI evaluation; format: cell-based; conditions: tested at 683-8 mg/L, both products contain 21% LAE
# Procedure: as §1
# [9] = tested on: Candida albicans ATCC 10231; experiment: standard CMI evaluation; format: cell-based; conditions: tested at 683-8 mg/L, both products contain 21% LAE
# Procedure: as §1
# [10] = tested on: Aspergillus niger ATCC 14604; experiment: standard CMI evaluation; format: cell-based; conditions: tested at 683-8 mg/L, both products contain 21% LAE
# Procedure: as §1
# [11] = tested on: Escherichia coli ATCC 8739; experiment: standard CMI evaluation; format: cell-based; conditions: tested at 683-8 mg/L, both products contain 21% LAE
# Procedure: as §1
# [12] = toxicological studies; format: in vivo; conditions: animals and humans
compound,measurement,setting,value
"CCCCCCCCCCCC(=O)N[C@@H](CCCN=C(N)N)C(=O)OCC.Cl [LAE, ethyl ester of the lauramide of the arginine monohydrochloride]",absorption and metabolism,[1],fast absorption and metabolisation into naturally-occurring amino acids and the fatty acid lauric acid
same,CMI,[2],128 mg/L
same,CMI,[3],128 mg/L
same,CMI,[4],256 mg/L
same,CMI,[5],128 mg/L
same,CMI,[6],128 mg/L
same,CMI,[7],128 mg/L
same,CMI,[8],128 mg/L
same,CMI,[9],128 mg/L
same,CMI,[10],170 mg/L
same,CMI,[11],128 mg/L
same,toxicity,[12],completely harmless
